Results reported in patent publication US20080305066A1, “2-C-Substituted Propane-1,3-Dicarbonyl Compounds and Their Use in Neutralising Malodour” (GIVAUDAN SA, priority 2005, published 2008).
Values belong to the compound of their own block, whether it stands above or below them.

Columns and labels:
[1] = Neutralization of propyl mercaptane (headspace GC-MS); details: 0.25 ml 4 mM test compound + 0.25 ml 4 mM propyl mercaptane in dimethylsulfoxide/H2O 1:1, room temperature, 3 h, vs blank samples
Protocol: A 23×75 mm-headspace vial is charged with 0.25 ml of a 4 mM-solution of the test compound in dimethylsulfoxide/H2O 1:1. One blank sample containing 0.25 ml of dimethylsulfoxide/H2O 1:1 is prepared per 3 test samples. The vials are sealed with a 20 mm-aluminium seal containing a rubber septum. At 15 min-intervals (which is the time of 1 GC-analysis run) 0.25 ml of a 4 mM-solution of propyl mercaptane in dimethylsulfoxide/H2O 1:1 is added to each sample via cannula.
The samples are left at room temperature for 3 h, then submitted to headspace analysis using a headspace auto sampler connected to a GC-MS apparatus. Per sample 250 μl of headspace is injected. The peak areas (MS-ion current) of propyl mercaptane is compared to the averaged value from the blank samples to calculate the reduction of headspace concentration.

[2] = Neutralization of human sweat in aqueous environment, two chamber sample (headspace GC-MS); details: 5.0 μmol test compound on viscose filter, 16 h at 35° C., vs blank samples; for % Headspace reduction of malodours compounds: 3-mercapto-1-butanol: aqueous 3-mercapto-1-butanol (17 mM) with 3-methyl hexanoic acid (23 mM); for % Headspace reduction of malodours compounds: 3-methyl hexanoic acid: aqueous 3-methyl hexanoic acid (23 mM) with 3-mercapto-1-butanol (17 mM)
Protocol: A two chamber sample was prepared as depicted in FIG. 1. It is composed of the headspace vial (1′) described in example 26 as the outer containment and a standard HPLC-auto sampler vial (2′) as the inner containment. The test compound (5.0 μmol) is absorbed on viscose filter (3′) (applied as CH2Cl2-solution and let evaporate). An amount of 100 ul of an aqueous solution of 3-methyl hexanoic acid (23 mM) and 3-mercapto-1-butanol (17 mM), is placed on the bottom of the inner vial (2′). A screw cap containing the filter (3′) is screwed tightly on the HPLC-vial (2′), which is placed in the headspace vial (1′). The headspace vial is closed with an aluminium seal containing a rubber septum (5′). Blank samples containing an empty filter (3′) and the aqueous solution of 3-methyl hexanoic acid and 3-mercapto-1-butanol in the inner vial as described above are prepared (1 blank per 3 test samples). The samples are left standing for 16 h at 35° C., then submitted to headspace analysis as described in example 26.
The malodourant compounds (3-methyl hexanoic acid and 3-mercapto-1-butanol) diffuse through the filter into the outer volume (6′). Therefore a compound of formula 1 (neutralizing substance) applied on the filter (3′) will reduce the headspace concentration of the sweat malodourants in the outer volume compared to the blank samples.

[3] = Olfactory evaluation against sweat-malodour reconstitution (panel test); details: 50 μl of 1% solution in ethanol on malodour treated cotton swatch; LMS rating, expert panel of 20 assessors; relative to swatch without test compound
Protocol: An ethanolic solution of axilla-malodour reconstitution is applied on a 1×1 cm cotton swatch (100 ∥l, 0.1% wt/wt), then 50 μl of the test compound (1% solution in ethanol) are dosed to the malodour treated swatches. The malodour intensity is rated on a LMS (labelled magnitude scale) by an expert panel of 20 assessors. The results are then expressed in % reduction relative to malodour of a swatch without adding a test compound.

SMILES: CCCC(=O)/C(=C/C(=O)OCC)C(=O)OCC
% Headspace Reduction [1]: 100%

SMILES: CCOC(=O)C(O)C(C(C)=O)C(=O)OC(C)(C)C (stereo not shown)
% Headspace Reduction [1]: 45%

SMILES: CC(=O)C(=CC(C)CCC=C(C)C)C(C)=O (stereo not shown)
% Headspace Reduction [1]: 8%

SMILES: CCOC(=O)C(O)C(C(C)=O)C(=O)OCC (stereo not shown)
% Headspace Reduction [1]: 62%

SMILES: CCOC(=O)C(C)=C(C(=O)OCC)C(=O)OCC
% Headspace Reduction [1]: 20%

SMILES: CC(=O)C(=CC(C)C)C(C)=O
% Headspace Reduction [1]: 34%

SMILES: CCOC(=O)C(OCC)C(C(C)=O)C(C)=O (stereo not shown)
% Headspace Reduction [1]: 82%

SMILES: CCOC(=O)C(OCC)C(C(C)=O)C(=O)c1ccccc1 (stereo not shown)
% Headspace Reduction [1]: 22%

SMILES: CCOC(=O)C(OC)C(C(C)=O)C(=O)OCC (stereo not shown)
% Headspace Reduction [1]: 54%

SMILES: CCCC(=O)C(C(=O)OCC)C(OCC)C(=O)OCC (stereo not shown)
% Headspace Reduction [1]: 38%

SMILES: CCOC(=O)C(O)C(C(=O)OCC)C(=O)c1ccccc1 (stereo not shown)
% Headspace Reduction [1]: 20%

SMILES: CCOC(=O)C(OCC)C(C(=O)OCC)C(=O)c1ccccc1 (stereo not shown)
% Headspace Reduction [1]: 10%

SMILES: CCOC(=O)C(O)C(C(=O)OC)C(=O)C(C)(C)C (stereo not shown)
% Headspace Reduction [1]: 15%

SMILES: CCOC(=O)/C=C(\C(C)=O)C(=O)c1ccccc1
% Headspace Reduction [1]: 100%

SMILES: CCOC(=O)/C=C(\C(=O)OC)C(=O)C(C)(C)C
% Headspace Reduction [1]: 82%

SMILES: CCCC(=O)/C(C(=O)OCC)=C(\O)C(=O)OCC
% Headspace Reduction [1]: 15%

SMILES: CCCCCCOC(=O)/C=C/C(=O)OCCCCCC [DHF, Dihexylfumarate, reference compound]
% Headspace reduction of malodours compounds: 3-mercapto-1-butanol [2]: 10% | % Headspace reduction of malodours compounds: 3-methyl hexanoic acid [2]: 0% | % Reduction of axilla malodour intensity in panel test [3]: 68% | % Headspace Reduction [1]: 5%

melting point: 126 to 128 °C
SMILES: CCOc1cc(C=C(C(C)=O)C(C)=O)ccc1O [Example 7]

SMILES: CCOC(=O)/C=C(/C(C)=O)C(=O)OCC [drawing 36]
% Headspace Reduction [1]: 100%

SMILES: CCOC(=O)C=C(C(C)=O)C(C)=O [drawing 38]
% Headspace Reduction [1]: 100%

SMILES: CCOC(=O)C(OCC)C(C(C)=O)C(=O)OCC (stereo not shown) [drawing 42]
% Headspace Reduction [1]: 64%

SMILES: CCOC(=O)/C=C(\C(=O)OCC)C(=O)c1ccccc1 [drawing 50]
% Headspace Reduction [1]: 100%

SMILES: CCCCCCCC=C(C(=O)OCC)C(=O)OCC [drawing 55]
% Headspace reduction of malodours compounds: 3-mercapto-1-butanol [2]: 22% | % Headspace reduction of malodours compounds: 3-methyl hexanoic acid [2]: 0%

SMILES: CCCCCCC/C=C(/C(C)=O)C(=O)OCC [drawing 56]
% Headspace reduction of malodours compounds: 3-mercapto-1-butanol [2]: 35% | % Headspace reduction of malodours compounds: 3-methyl hexanoic acid [2]: 10%

SMILES: CCOC(=O)/C=C(/C(C)=O)C(=O)OCC [drawing 57]
% Headspace reduction of malodours compounds: 3-mercapto-1-butanol [2]: 98% | % Headspace reduction of malodours compounds: 3-methyl hexanoic acid [2]: 10%

SMILES: CCOC(=O)C=C(C(C)=O)C(C)=O [drawing 58]
% Headspace reduction of malodours compounds: 3-mercapto-1-butanol [2]: 100% | % Headspace reduction of malodours compounds: 3-methyl hexanoic acid [2]: 0%

SMILES: CCOC(=O)C(OCC)C(C(C)=O)C(=O)OCC (stereo not shown) [drawing 59]
% Headspace reduction of malodours compounds: 3-mercapto-1-butanol [2]: 100% | % Headspace reduction of malodours compounds: 3-methyl hexanoic acid [2]: 0%

SMILES: CCOC(=O)/C=C(\C(=O)OCC)C(=O)c1ccccc1 [drawing 60]
% Headspace reduction of malodours compounds: 3-mercapto-1-butanol [2]: 85% | % Headspace reduction of malodours compounds: 3-methyl hexanoic acid [2]: 28%

SMILES: CCOc1cc(C=C(C(C)=O)C(C)=O)ccc1O [drawing 61]
% Headspace reduction of malodours compounds: 3-mercapto-1-butanol [2]: 41% | % Headspace reduction of malodours compounds: 3-methyl hexanoic acid [2]: 9%

SMILES: CCCCCCCC=C(C(=O)OCC)C(=O)OCC [drawing 62]
% Reduction of axilla malodour intensity in panel test [3]: 59%

SMILES: CCCCCCC/C=C(/C(C)=O)C(=O)OCC [drawing 63]
% Reduction of axilla malodour intensity in panel test [3]: 82%

SMILES: CCOC(=O)/C=C(/C(C)=O)C(=O)OCC [drawing 64]
% Reduction of axilla malodour intensity in panel test [3]: 76%

SMILES: CCOC(=O)C(OCC)C(C(C)=O)C(=O)OCC (stereo not shown) [drawing 65]
% Reduction of axilla malodour intensity in panel test [3]: 67%
